Assay results from PubChem BioAssay (NCI).
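All cell lines were grown in 96-well plates and treated with compound for 48 hours. At the TGI there is no net growth.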

System: SN12K1 renal
Test: DTP human tumour cell line panel, 48 h

With `Nc1ncnc2c(C3OC(CO)C(O)C3O)[nH]nc12` (stereo unspecified) the TGI was 1880 nM.
